According to US10233173B2, “Substituted 1,2,3-triazoles as NR2B-selective NMDA modulators” (JANSSEN PHARMACEUTICA NV, priority 2016, dated 2019):

The molecules below were run against human GluN1/GluN2B NMDA receptors (Homo sapiens, UniProt Q05586+Q13224) (assay: Cell-based calcium flux (FLIPR) assay on cloned human NR1/NR2B ion channels expressed in mammalian cells). Settings: standard assay; glutamate at ~EC80; FLIPR calcium flux.
Method in brief: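 Calcium influx followed by FLIPR fluorescence after 5 min compound exposure and a further 5 min co-agonist challenge: 10 μM glycine with glutamate at ~EC80 (standard) or EC40 (HTS).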

Sequence of human GluN1/GluN2B NMDA receptors (Q13224 27-1484, other chains not shown): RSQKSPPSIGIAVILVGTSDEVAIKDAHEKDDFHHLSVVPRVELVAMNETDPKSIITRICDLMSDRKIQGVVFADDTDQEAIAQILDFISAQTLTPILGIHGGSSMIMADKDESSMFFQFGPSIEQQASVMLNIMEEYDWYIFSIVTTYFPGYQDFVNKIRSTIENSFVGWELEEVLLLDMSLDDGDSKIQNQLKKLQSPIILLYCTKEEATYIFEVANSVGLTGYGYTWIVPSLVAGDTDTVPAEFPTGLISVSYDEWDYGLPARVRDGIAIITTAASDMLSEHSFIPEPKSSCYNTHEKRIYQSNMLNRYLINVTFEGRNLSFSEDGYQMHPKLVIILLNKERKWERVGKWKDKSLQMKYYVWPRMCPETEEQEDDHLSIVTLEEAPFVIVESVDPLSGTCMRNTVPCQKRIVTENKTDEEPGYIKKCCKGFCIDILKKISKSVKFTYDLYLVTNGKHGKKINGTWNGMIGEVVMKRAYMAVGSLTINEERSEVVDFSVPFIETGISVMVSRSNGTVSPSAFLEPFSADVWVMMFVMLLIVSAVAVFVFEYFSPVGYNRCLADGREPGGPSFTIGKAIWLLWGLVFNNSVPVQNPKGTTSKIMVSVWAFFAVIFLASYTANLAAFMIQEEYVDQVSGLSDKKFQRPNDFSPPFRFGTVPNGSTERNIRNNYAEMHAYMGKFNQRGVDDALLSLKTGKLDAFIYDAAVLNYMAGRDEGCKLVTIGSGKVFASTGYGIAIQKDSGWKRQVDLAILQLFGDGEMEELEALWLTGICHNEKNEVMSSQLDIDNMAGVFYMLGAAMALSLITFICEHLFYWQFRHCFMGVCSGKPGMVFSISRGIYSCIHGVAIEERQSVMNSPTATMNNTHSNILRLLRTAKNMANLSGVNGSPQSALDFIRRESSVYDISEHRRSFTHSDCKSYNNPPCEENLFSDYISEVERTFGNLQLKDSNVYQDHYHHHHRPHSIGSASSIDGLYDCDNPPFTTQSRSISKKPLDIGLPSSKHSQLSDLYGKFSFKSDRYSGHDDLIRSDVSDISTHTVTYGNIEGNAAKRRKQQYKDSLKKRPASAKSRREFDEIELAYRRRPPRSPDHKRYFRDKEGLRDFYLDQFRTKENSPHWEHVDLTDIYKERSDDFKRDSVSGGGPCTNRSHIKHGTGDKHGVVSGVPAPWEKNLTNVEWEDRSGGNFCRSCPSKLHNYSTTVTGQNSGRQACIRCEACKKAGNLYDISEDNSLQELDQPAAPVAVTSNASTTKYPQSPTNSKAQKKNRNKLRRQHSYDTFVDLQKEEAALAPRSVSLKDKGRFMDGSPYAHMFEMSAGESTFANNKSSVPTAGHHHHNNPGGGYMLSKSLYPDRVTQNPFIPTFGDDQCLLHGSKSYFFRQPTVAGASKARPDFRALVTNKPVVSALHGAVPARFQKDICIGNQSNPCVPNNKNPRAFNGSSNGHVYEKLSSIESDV

Row | SMILES | IC50
1 | CC(=O)c1cnc(OCc2cn(-c3ccc(F)c(C(F)(F)F)c3)nn2)nc1 [Example 447, 1-[2-[[1-[4-Fluoro-3-(trifluoromethyl)phenyl]triazol-4-yl]methoxy]pyrimidin-5-yl]ethanone] | 0.014 µM
2 | Cc1cnc(OCc2nnn(-c3ccc(F)c(C(C)(F)F)c3)c2C)nc1C [Example 595, 2-[[1-[3-(1,1-Difluoroethyl)-4-fluoro-phenyl]-5-methyl-triazol-4-yl]methoxy]-4,5-dimethyl-pyrimidine] | 0.706 µM
3 | Cc1cnc(OCc2cn(-c3ccc(Cl)c(C(F)F)c3)nn2)nc1N [Example 632, 2-[[1-[4-chloro-3-(difluoromethyl)phenyl]triazol-4-yl]methoxy]-5-methyl-pyrimidin-4-amine] | 0.004 µM
4 | FC(F)c1cc(-n2cc(COc3ncc(C4CC4)cn3)nn2)ccc1Cl [Example 630, 2-[[1-[4-Chloro-3-(difluoromethyl)phenyl]triazol-4-yl]methoxy]-5-cyclopropyl-pyrimidine] | 0.013 µM
5 | CCNc1ccnc(OCc2cn(-c3ccc(F)c(OC(F)F)c3)nn2)n1 [Example 504, 2-((1-(3-(Difluoromethoxy)-4-fluorophenyl)-1H-1,2,3-triazol-4-yl)methoxy)-N-ethylpyrimidin-4-amine] | 0.007 µM
6 | Cc1nc(OCc2cn(-c3cccc(Cl)c3F)nn2)ncc1F [Example 613, 2-[[1-(3-Chloro-2-fluoro-phenyl)triazol-4-yl]methoxy]-5-fluoro-4-methyl-pyrimidine] | 1.44 µM
7 | CC(F)(F)c1cc(-n2cc(COc3ncc(C#N)cn3)nn2)ccc1F [Example 583, 2-[[1-[3-(1,1-Difluoroethyl)-4-fluoro-phenyl]triazol-4-yl]methoxy]pyrimidine-5-carbonitrile] | 0.067 µM
8 | Cc1cnc(OCc2cn(-c3ccc(N4CCC4)c(C(F)F)c3)nn2)nc1 [Example 638, 2-((1-(4-(Azetidin-1-yl)-3-(difluoromethyl)phenyl)-1H-1,2,3-triazol-4-yl)methoxy)-5-methylpyrimidine] | 0.511 µM
9 | CC(C)(O)c1cnc(OCc2cn(-c3ccc(F)c(C(C)(F)F)c3)nn2)nc1 [Example 566, 2-[2-[[1-[3-(1,1-Difluoroethyl)-4-fluoro-phenyl]triazol-4-yl]methoxy]pyrimidin-5-yl]propan-2-ol] | 0.008 µM
10 | Cc1ccc(OCc2cn(-c3ccc(F)c(C(C)(F)F)c3)nn2)nc1C [Example 560, 6-[[1-[3-(1,1-Difluoroethyl)-4-fluoro-phenyl]triazol-4-yl]methoxy]-2,3-dimethyl-pyridine] | 0.052 µM
11 | CCc1cnc(OCc2cn(-c3cccc(C)n3)nn2)nc1 [Example 660, 5-Ethyl-2-[[1-(6-methyl-2-pyridyl)triazol-4-yl]methoxy]pyrimidine] | > 2.99 µM
12 | COCc1ccnc(OCc2cn(-c3ccc(F)c(C(F)F)c3)nn2)n1 [Example 399, 2-[[1-[3-(Difluoromethyl)-4-fluoro-phenyl]triazol-4-yl]methoxy]-4-(methoxymethyl)pyrimidine] | 0.023 µM
13 | Cc1cnc(OCc2cn(-c3ccc(F)c(OC(F)F)c3)nn2)nc1N [Example 514, 2-[[1-[3-(Difluoromethoxy)-4-fluoro-phenyl]triazol-4-yl]methoxy]-5-methyl-pyrimidin-4-amine] | 0.005 µM
14 | CNc1nc(OCc2cn(-c3ccc(Cl)c(C(C)(F)F)c3)nn2)ncc1F [Example 549, 2-[[1-[4-Chloro-3-(1,1-difluoroethyl)phenyl]triazol-4-yl]methoxy]-5-fluoro-N-methyl-pyrimidin-4-amine] | 0.094 µM
15 | COCc1ccnc(OCc2cn(-c3ccc(F)c(C)c3F)nn2)n1 [Example 645, 2-[[1-(2,4-Difluoro-3-methyl-phenyl)triazol-4-yl]methoxy]-4-(methoxymethyl)pyrimidine] | 0.799 µM
16 | Cc1cnc(OCc2cn(-c3cccc(Cl)c3F)nn2)nc1 [Example 610, 2-[[1-(3-Chloro-2-fluoro-phenyl)triazol-4-yl]methoxy]-5-methyl-pyrimidine] | 1.03 µM
17 | Cc1cnc(OCc2cn(-c3ccc(F)c(OC(F)F)c3)nn2)cn1 [Example 396, 2-[[1-[3-(Difluoromethoxy)-4-fluoro-phenyl]triazol-4-yl]methoxy]-5-methyl-pyrazine] | 0.647 µM
18 | CC(=O)c1cnc(OCc2cn(-c3ccc(Cl)c(C(C)(F)F)c3)nn2)nc1 [Example 550, 1-[2-[[1-[4-Chloro-3-(1,1-difluoroethyl)phenyl]triazol-4-yl]methoxy]pyrimidin-5-yl]ethanone] | 0.016 µM

Same assay, conditions: standard assay; human GluN1/GluN2B, calcium flux (FLIPR), glutamate ~EC80

Row | SMILES | IC50
19 | Cc1ccnc(OCc2cn(-c3ccc(Cl)c(C(F)F)c3)nn2)n1 [Example 30, 2-[[1-[4-Chloro-3-(difluoromethyl)phenyl]triazol-4-yl]methoxy]-4-methyl-pyrimidine] | 0.004 µM
20 | Fc1ccnc(OCc2cn(-c3ccc(Cl)c(OC(F)F)c3)nn2)n1 [Example 191, 2-[[1-[4-Chloro-3-(difluoromethoxy)phenyl]triazol-4-yl]methoxy]-4-fluoro-pyrimidine] | 0.023 µM
21 | CNc1ccnc(OCc2cn(-c3cccc(C(C)(F)F)c3)nn2)n1 [Example 317, 2-[[1-[3-(1,1-Difluoroethyl)phenyl]triazol-4-yl]methoxy]-N-methyl-pyrimidin-4-amine] | 0.026 µM
22 | CC(N)c1ccnc(OCc2cn(-c3ccc(F)c(OC(F)F)c3)nn2)n1 (racemic) [Example 163, (R/S) 1-[2-[[1-[3-(Difluoromethoxy)-4-fluoro-phenyl]triazol-4-yl]methoxy]pyrimidin-4-yl]ethanamine] | 1.4 µM
23 | Cc1nc(OCc2cn(-c3cccc(C(C)(F)F)c3)nn2)ncc1F [Example 313, 2-[[1-[3-(1,1-Difluoroethyl)phenyl]triazol-4-yl]methoxy]-5-fluoro-4-methyl-pyrimidine] | 0.005 µM
24 | COc1cnc(OCc2cn(-c3ccccc3C)nn2)nc1 [Example 238, 5-Methoxy-2-[[1-(o-tolyl)triazol-4-yl]methoxy]pyrimidine] | 5.99 µM
25 | Cc1cnc(OCc2cn(-c3ccc(Cl)c(C(F)F)c3)nn2)nc1 [Example 31, 2-[[1-[4-Chloro-3-(difluoromethyl)phenyl]triazol-4-yl]methoxy]-5-methyl-pyrimidine] | 0.001 µM
26 | COCc1ccnc(OCc2cn(-c3ccc(Cl)c(OC(F)F)c3)nn2)n1 [Example 384, 2-[[1-[4-Chloro-3-(difluoromethoxy)phenyl]triazol-4-yl]methoxy]-4-(methoxymethyl)pyrimidine] | 0.018 µM
27 | Fc1ccc(-n2cc(COc3ccccn3)nn2)cc1OC(F)F [Example 4, 2-[[1-[3-(Difluoromethoxy)-4-fluoro-phenyl]triazol-4-yl]methoxy]pyridine] | 0.392 µM
28 | CC(C)(O)c1cnc(OCc2cn(-c3ccc(F)c(C4CC4)c3)nn2)nc1 [Example 180, 2-[2-[[1-(3-Cyclopropyl-4-fluoro-phenyl)triazol-4-yl]methoxy]pyrimidin-5-yl]propan-2-ol] | 0.133 µM
29 | CC(F)(F)c1cc(-n2cc(COc3ncc(Cl)cn3)nn2)ccc1F [Example 69, 5-Chloro-2-[[1-[3-(1,1-difluoroethyl)-4-fluoro-phenyl]triazol-4-yl]methoxy]pyrimidine] | 0.009 µM
30 | Cc1cnc(OCc2cn(-c3ccc(Br)c(C)n3)nn2)nc1 [Example 94, 2-[[1-(5-Bromo-6-methyl-2-pyridyl)triazol-4-yl]methoxy]-5-methyl-pyrimidine] | 2.91 µM
31 | COc1cnc(OCc2cn(-c3ccc(Cl)c(OC(F)F)c3)nn2)nc1 [Example 26, 2-[[1-[4-Chloro-3-(difluoromethoxy)phenyl]triazol-4-yl]methoxy]-5-methoxy-pyrimidine] | 0.003 µM
32 | Fc1cnc(OCc2cn(-c3cccc(OC(F)F)c3)nn2)nc1 [Example 324, 2-[[1-[3-(Difluoromethoxy)phenyl]triazol-4-yl]methoxy]-5-fluoro-pyrimidine] | 0.494 µM
33 | Cc1cnc(OCc2cn(-c3ccc4c(c3)OC(F)(F)O4)nn2)nc1 [Example 354, 2-[[1-(2,2-Difluoro-1,3-benzodioxol-5-yl)triazol-4-yl]methoxy]-5-methyl-pyrimidine] | 0.073 µM
34 | COc1cnc(OCc2cn(-c3ccc(OC(F)(F)F)cc3)nn2)nc1 [Example 337, 5-Methoxy-2-[[1-[4-(trifluoromethoxy)phenyl]triazol-4-yl]methoxy]pyrimidine] | > 10 µM
35 | Fc1cccc(-n2cc(COc3ncccn3)nn2)c1 [Example 228, 2-[[1-(3-Fluorophenyl)triazol-4-yl]methoxy]pyrimidine] | 5.65 µM
36 | CC(F)(F)c1cc(-n2cc(COc3ncc(Br)cn3)nn2)ccc1F [Example 183, 5-Bromo-2-[[1-[3-(1,1-difluoroethyl)-4-fluoro-phenyl]triazol-4-yl]methoxy]pyrimidine] | 0.009 µM
37 | CNc1nc(OCc2cn(-c3cccc(C(C)(F)F)c3)nn2)ncc1F [Example 315, 2-[[1-[3-(1,1-Difluoroethyl)phenyl]triazol-4-yl]methoxy]-5-fluoro-N-methyl-pyrimidin-4-amine] | 0.158 µM
38 | Cc1cnc(OCc2nnn(-c3cccc(C(F)F)c3)c2C)nc1 [Example 149] | 0.952 µM
39 | COc1cc(Cl)cnc1OCc1cn(-c2ccc(Cl)c(OC(F)F)c2)nn1 [Example 106, 5-Chloro-2-[[1-[4-chloro-3-(difluoromethoxy)phenyl]triazol-4-yl]methoxy]-3-methoxy-pyridine] | 0.276 µM
40 | COc1cnc(OCc2cn(-c3ccc(OC(F)F)cc3)nn2)nc1 [Example 331, 2-[[1-[4-(Difluoromethoxy)phenyl]triazol-4-yl]methoxy]-5-methoxy-pyrimidine] | 0.098 µM
41 | Cc1cnc(OCc2cn(-c3ccc(F)c(Br)c3)nn2)nc1C [Example 85, 2-[[1-(3-Bromo-4-fluoro-phenyl)triazol-4-yl]methoxy]-4,5-dimethyl-pyrimidine] | 0.003 µM
42 | Fc1ccc(-n2cc(COc3ncc(Cl)cn3)nn2)cc1C(F)(F)F [Example 74, 5-Chloro-2-[[1-[4-fluoro-3-(trifluoromethyl)phenyl]triazol-4-yl]methoxy]pyrimidine] | 0.016 µM
